This is an account of results in US20170260183A1, “BICYCLIC COMPOUNDS AS PEST CONTROL AGENTS” (BAYER CROPSCIENCE AKTIENGESELLSCHAFT, priority 2014, published 2017).

Read-outs that look alike come from different tables or passages of the source.

A short description of data set [1]: logP determination by HPLC on reversed-phase columns (OECD Guideline 117). Particulars: reversed-phase (C18) HPLC column. In kind it is physicochemical. Here is the method:
The logP values were determined in accordance with OECD Guideline 117 (EC Directive 92/69/EEC) by HPLC (high-performance liquid chromatography) using reversed-phase (RP) columns (C18), by the following methods: [a] The LC-MS determination in the acidic range is carried out at pH 2.7 with 0.1% aqueous formic acid and acetonitrile (contains 0.1% formic acid) as eluents; linear gradient from 10% acetonitrile to 95% acetonitrile. [b] LC-MS determination in the neutral range is effected at pH 7.8 with 0.001 molar aqueous ammonium hydrogencarbonate solution and acetonitrile as eluents; linear gradient from 10% acetonitrile to 95% acetonitrile. Calibration is effected using unbranched alkan-2-ones (having 3 to 16 carbon atoms) with known logP values (logP values determined on the basis of the retention times by linear interpolation between two successive alkanone s).

Data set [2] has as its system Myzus persicae. The experiment in a line: Myzus persicae - spray test. In kind it is in vivo. Particulars: foliar, 144 h, application rate 500 g/ha, after 6 days, sprayed Chinese cabbage leaf discs, 100% = all aphids killed, read-out: efficacy in %. Here is the method:
Myzus persicae—Spray Test • Solvent: 78 parts by weight of acetone • 1.5 parts by weight of dimethylformamide • Emulsifier: alkylaryl polyglycol ether […] To produce further test concentrations, the formulation is diluted with emulsifier-containing water. Discs of Chinese cabbage leaves (Brassica pekinensis) infested by all stages of the green peach aphid (Myzus persicae) are sprayed with an active ingredient formulation of the desired concentration. After 6 days, the efficacy in % is determined. 100% means that all the aphids have been killed and 0% means that none of the aphids have been killed.

In data set [3] the test system is Aphis gossypii. The experiment in a line: Aphis gossypii - spray test. In kind it is in vivo. The note with it: application rate 4 ppm; after 6 days; sprayed cotton plants; 100% = all aphids killed. Here is the method:
Aphis gossypii—Spray Test • Solvent: 7 parts by weight of dimethylformamide • Emulsifier: alkylaryl polyglycol ether
To produce a suitable active ingredient formulation, 1 part by weight of active ingredient is dissolved with the specified parts by weight of solvent and made up with water containing an emulsifier concentration of 1000 ppm until the desired concentration is attained. To produce further test concentrations, the formulation is diluted with emulsifier-containing water. If the addition of ammonium salts or/and penetrants is required, these are each added in a concentration of 1000 ppm to the formulation solution.
Cotton plants (Gossypium hirsutum) heavily infested by the cotton aphid (Aphis gossypii) are sprayed with an active ingredient formulation of the desired concentration.
After 6 days, the kill in % is determined. 100% means that all the aphids have been killed and 0% means that none of the aphids have been killed.

Setting [4] is: acidic range, pH 2.7, 0.1% aqueous formic acid and acetonitrile, read-out: logP[a].
Where [5] appears, read: neutral range, pH 7.8, 0.001 molar aqueous ammonium hydrogencarbonate and acetonitrile, read-out: logP[b].

Consider `Cc1ccc(-c2cnc3nn(-c4cccnc4)cc3c2)cc1[S+]([O-])CC(F)(F)F` (centres unmarked) [Example 5, 5-[4-METHYL-3-(2,2,2-TRIFLUOROETHYLSULPHINYL)PHENYL]-2-(3-PYRIDYL)PYRAZOLO [3,4-B]PYRIDINE], for which the figures for the chromatographic logP in data set [1] (setting [4]) and in data set [1] (setting [5]) were 2.07 and 2.03, respectively. Moreover, in data set [2], the pest or weed control at 500 g/ha came to 100%.
The like results for `Cn1cc(-c2cnc3nn(-c4cccnc4)cc3c2)cn1` [Example 8, 5-(1-methylpyrazol-4-yl)-2-(3-pyridyl)pyrazolo[3,4-b]pyridine] were, in that order, 1, 1.15 and 90%.
`Cc1ccc(-c2cnc3nn(-c4cccnc4)cc3c2)cc1SCC(F)(F)F` [Example 4, 5-[4-methyl-3-(2,2,2-trifluoroethylsulphanyl)phenyl]-2-(3-pyridyl)pyrazolo[3,4-b]pyridine]: the chromatographic logP was found to be 3.14 in data set [1] (setting [4]) and 3.1 in data set [1] (setting [5]). Besides, the pest or weed control at 500 g/ha in data set [2] turned out to be 100%.
For `CC(F)(F)CC(=O)Nc1cnc2nn(-c3cccnc3)cc2c1` [Example 7, 3,3-DIFLUORO-N-[2-(3-PYRIDYL)PYRAZOLO[3,4-B]PYRIDIN-5-YL]BUTANAMIDE], the chromatographic logP in data set [1] (setting [4]) and in data set [1] (setting [5]) was 1.22 throughout. The pest or weed control at 500 g/ha in data set [2] came out at 90%.
With `CC(=O)Nc1cnc2nn(-c3cccnc3)cc2c1` [Example 1, 5-N-Acetylamino-2-(3-pyridyl)-pyrazolo[3,4-b]pyridine], the “efficacy (kill in %)” value in data set [3] was determined as 95%. In addition, in data set [1] (setting [5]), the chromatographic logP was determined as 0.54.
Regarding `CSCCC(=O)Nc1cnc2nn(-c3cccnc3)cc2c1` [Example 6, 3-methylsulphanyl-N-[2-(3-pyridyl)pyrazolo [3,4-b]pyridin-5-yl]propanamide], the chromatographic logP in data set [1] (setting [4]) stood at 1.15; in data set [1] (setting [5]), 1.21. Moreover, the pest or weed control at 500 g/ha in data set [2] amounted to 100%.
On the same counts, the results for `Cc1cc(F)c(-c2cnc3nn(-c4cccnc4)cc3c2)cc1[S+]([O-])CC(F)(F)F` (centres unmarked) [Example 3, 5-[2-fluoro-4-methyl-5-(2,2,2-trifluoroethylsulphinyl)phenyl]-2-(3-pyridyl)pyrazolo [3,4-b]pyridine] are 2.14, 2.11 and 90%.
On the same counts, the results for `CSCCC(=O)N(C)c1cnc2nn(-c3cccnc3)cc2c1` [Example 10, N-[2-(3-pyridyl)pyrazolo[3,4-b]pyridin-5-yl]-N-methyl-3-methylsulphanylpropanamide] are 1.16, 1.2 and 90%.
On the same counts, the results for `Cc1cc(F)c(-c2cnc3nn(-c4cccnc4)cc3c2)cc1SCC(F)(F)F` [Example 2, 5-[2-Fluoro-4-methyl-5-(2,2,2-trifluoroethylsulphanyl)phenyl]-2-(3-pyridyl)pyrazolo[3,4-b]pyridine] are 3.44, 3.22 and 90%.
